Data: patent US6294555A, “1-[(1-Substituted-4-piperidinyl)methyl]-4-piperidine derivative, process for producing the same, medicinal compositions containing the same and intermediates of these compounds” (Dainippon Pharmaceutical Co., Ltd., priority 1998, dated 2001)

Key:
[1] = Acute Toxicity (intravenous, lethality over 7 days); conditions: mouse, in vivo, mice, observed for 7 days, read-out: 50% lethal dose (LD50)
Procedure: Male mice of Std-ddY strain weighing 25-30 g were used in a group of 5 animals. A test compound was suspended in physiological saline solution or 1% lactose solution and administered intravenously to the mice. […] The LD50 doses of the compounds of Examples 1, 10, 12, 18, 20, 21, 25 and 26 were all more than 100 mg/kg.

[2] = molecular target: T1, Serotonin 4 (5-HT4) Receptors (Cavia porcellus, UniProt O70528); assay: Binding Assay on Serotonin 4 (5-HT4) Receptors ([3H]-GR113808, striatum membrane fractions); parameters: species or system guinea pig (Std-Hartley); conditions: 50% inhibition of specific binding of 0.1 nM [3H]-GR113808; 37° C., 30 min; test compounds are fumarates except numbers marked ** (62, 72, 74: free bases)
T1 construct: the striatum was dissected; from tissue; host or cells: guinea pig (Std-Hartley) brain striatum, membrane fractions
Procedure: Std-Hartley guinea pigs weighing 300-400 g were decapitated, and the brain thereof was immediately taken out, and the striatum was dissected. To the tissue thus obtained was added 15-times volume of Hepes buffer (50 mM, pH7.4, 4° C.), homogenized in a Teflon homogenizer, and centrifuged at 48,000×g at 4° C. for 15 minutes. The pellet was suspended in the same Hepes buffer in a volume of 1 ml per 30 mg of the wet tissues to give receptor membrane fractions.
The reaction was terminated by rapid vacuum filtration and washing (3×4 ml) with ice-cold 50 mM Tris-HCl buffer (pH 7.7) through Whatman GF/B filter paper using a Brandel cell harvester. Prior to the filtration, the filter to be used was presoaked in a 0.1% solution of polyethylenimine for one hour. The radioactivity on the filter was determined with by ACS-II scintillation cocktail by a liquid scintillation counter.

[3] = test system: Mice of Std-ddY strain (evacuation); assay: Assay on Evacuation in Mice (fecal pellets, oral); format: in vivo, mouse (Std-ddY, male); parameters: key: -: Inactive; +: Moderately stimulated (P<0.05); ++: Markedly stimulated (p<0.01); conditions: 1 mg/kg oral; fecal pellets at 30, 60 and 120 minutes; Dunnett's test; fumarates except numbers marked ** (25, 86: free bases)
Procedure: Male mice of Std-ddY strain weighing 25-30 g were used. Free access to food and water was allowed up to the beginning of the procedure.
The mice (each group: five mice) were placed in a mesh bottom cage for fasting, and they were allowed for acclimation to new environment for about one hour prior to the start of the experiment. A test compound, which was previously suspended in the 0.5% tragacanth solution, was administered orally to the mice at a dose of 1 mg/kg. The fecal pellets were counted and collected at 30, 60 and 120 minutes after the treatment of a test compound, and weighed.
The statistical judgment of efficacy was carried out between the control group and the treated group, and determined by Dunnett's test.

5-HT4 receptors = conditions: background art, J. Pharmacol. Exp. Ther., 1990, 252, 1378; 1991, 257, 781; cited from earlier work
dopamine D2 receptors = conditions: background art; cited from earlier work
[4] = background art; cited from earlier work

T1 sequence (O70528 whole entry): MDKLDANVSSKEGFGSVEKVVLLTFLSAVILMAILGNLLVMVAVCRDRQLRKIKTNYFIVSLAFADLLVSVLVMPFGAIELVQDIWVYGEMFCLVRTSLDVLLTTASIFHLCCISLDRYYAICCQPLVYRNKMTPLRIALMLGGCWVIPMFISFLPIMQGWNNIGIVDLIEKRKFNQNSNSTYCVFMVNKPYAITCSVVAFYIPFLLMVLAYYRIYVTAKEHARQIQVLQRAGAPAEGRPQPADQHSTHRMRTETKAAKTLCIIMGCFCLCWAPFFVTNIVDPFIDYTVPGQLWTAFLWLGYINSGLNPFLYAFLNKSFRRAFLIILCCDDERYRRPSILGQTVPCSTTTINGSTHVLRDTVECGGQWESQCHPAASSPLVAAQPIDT

| Structure (SMILES) | LD50 at 168 h [1] [mg/kg] | IC50 [2] [nM] | Effect (evacuation) [3] | gastrointestinal motility (5-HT4 receptors) | inhibitory effects on the central nervous system / dopamine D2 antagonism (dopamine D2 receptors) | side effects on the heart [4] |
| --- | --- | --- | --- | --- | --- | --- |
| CN(C)C(=S)N1CCC(CN2CCC(NC(=O)c3cc(Cl)c(N)c4c3OCC4)CC2)CC1 [Example 20, 4-amino-5-chloro-N-[1-(1-dimethylthiocarbamoyl-4-piperidinylmethyl)-4-piperidinyl]-2,3-dihydrobenzo[b]furan-7-carboxamide] | > 100 | 1.3 | ++ | – | – | – |
| COc1cc(N)c(Cl)cc1C(=O)NC1CCN(CC2CCN(C(=O)N(C)C)CC2)CC1 [Example 1, 4-amino-5-chloro-N-[1-(1-dimethylcarbamoyl-4-piperidinylmethyl)-4-piperidinyl]-2-methoxybenzamide] | > 100 | 11.9 | ++ | – | – | – |
| CCOc1cc(N)c(Cl)cc1C(=O)NC1CCN(CC2CCN(C(=O)N(C)C)CC2)CC1 [Example 25, 4-amino-5-chloro-N-[1-(1-dimethylcarbamoyl-4-piperidinylmethyl)-4-piperidinyl]-2-ethoxybenzamide] | > 100 | 4.2 | ++ | – | – | – |
| COc1cc(N)c(Br)cc1C(=O)NC1CCN(CC2CCN(C(=O)N(C)C)CC2)CC1 [Example 26, 4-amino-5-bromo-N-[1-(1-dimethylcarbamoyl-4-piperidinylmethyl)-4-piperidinyl]-2-methoxybenzamide] | > 100 | 11.5 | + | – | – | – |
| CCN(CC)CCNC(=O)c1cc(Cl)c(N)cc1OC [metoclopramide] | – | – | – | enhance the gastrointestinal motility by stimulating 5-HT4 receptors | – | – |
| Nc1c(Cl)cc(C(=O)NC2CCN(CC3CCN(C(=O)N4CCCC4)CC3)CC2)c2c1CCO2 [Example 21, 4-amino-5-chloro-N-[1-[1-(1-pyrrolidinecarbonyl)-4-piperidinylmethyl)-4-piperidinyl]-2,3-dihydrobenzo[b]furan-7-carboxamide] | > 100 | 2.4 | ++ | – | – | – |
| CN(C)C(=O)N1CCC(CN2CCC(NC(=O)c3cc(Cl)c(N)c4c3OCC4)CC2)CC1 [Example 18, 4-amino-5-chloro-N-[1-(1-dimethylcarbamoyl-4-piperidinylmethyl)-4-piperidinyl]-2,3-dihydrobenzo[b]furan-7-carboxamide] | > 100 | 3.3 | ++ | – | – | – |
| COc1cc(N)c(Cl)cc1C(=O)NC1CCN(CC2CCN(C(=O)N3CCCC3)CC2)CC1 [Example 12, 4-amino-5-chloro-2-methoxy-N-[1-[1-(1-pyrrolidinecarbonyl)-4-piperidinylmethyl]-4-piperidinyl]benzamide] | > 100 | 8.7 | ++ | – | – | – |
| COc1cc(N)c(Cl)cc1C(=O)NC1CCN(CC2CCN(C(=S)N(C)C)CC2)CC1 [Example 10, 4-amino-5-chloro-N-[1-(1-dimethylthiocarbamoyl-4-piperidinylmethyl)-4-piperidinyl]-2-methoxybenzamide] | > 100 | 8 | ++ | – | – | – |
| COc1cc(N)c(Cl)cc1C(=O)N[C@H]1CCN(CCCOc2ccc(F)cc2)C[C@H]1OC (relative stereo) [Comp. A, cis-4-amino-5-chloro-N-[1-[3-(4-fluorophenoxy)-propyl]-3-methoxy-4-piperidinyl]-2-methoxybenzamide] | – | – | – | enhance the gastrointestinal motility by stimulating 5-HT4 receptors | inhibitory effects on the central nervous system based on the antagonistic activity against dopamine D2 receptors | side effects on the heart |
| CCN(C)C(=O)N1CCC(CN2CCC(NC(=O)c3cc(Cl)c(N)cc3OC)CC2)CC1 [Example 4, 4-amino-5-chloro-N-[1-[1-(N-ethyl-N-methylcarbamoyl)-4-piperidinylmethyl]-4-piperidinyl]-2-methoxybenzamide] | – | 11.9 | ++ | – | – | – |
| CCN(CC)C(=O)N1CCC(CN2CCC(NC(=O)c3cc(Cl)c(N)c4c3OCC4)CC2)CC1 [Example 19, 4-amino-5-chloro-N-[1-(1-diethylcarbamoyl-4-piperidinylmethyl)-4-piperidinyl]-2,3-dihydrobenzo[b]furan-7-carboxamide] | – | 2.7 | ++ | – | – | – |
